Patent US11155550B2, “Histone deacetylase inhibitors and methods of use thereof” (Reaction Biology Corp., priority 2018, dated 2021)

The compounds below were run against T1, Human HDAC8 (Homo sapiens, UniProt Q9BY41) (assay: Biochemical HDAC enzymatic assay, HDAC8). Conditions: Table 1; incubation time 10 min.
T1 construct: full-length with a C-terminal His tag, MW=46.4 kDa; His tag (C); made in house; host or cells: baculovirus expression system
T1 sequence (Q9BY41 1-377): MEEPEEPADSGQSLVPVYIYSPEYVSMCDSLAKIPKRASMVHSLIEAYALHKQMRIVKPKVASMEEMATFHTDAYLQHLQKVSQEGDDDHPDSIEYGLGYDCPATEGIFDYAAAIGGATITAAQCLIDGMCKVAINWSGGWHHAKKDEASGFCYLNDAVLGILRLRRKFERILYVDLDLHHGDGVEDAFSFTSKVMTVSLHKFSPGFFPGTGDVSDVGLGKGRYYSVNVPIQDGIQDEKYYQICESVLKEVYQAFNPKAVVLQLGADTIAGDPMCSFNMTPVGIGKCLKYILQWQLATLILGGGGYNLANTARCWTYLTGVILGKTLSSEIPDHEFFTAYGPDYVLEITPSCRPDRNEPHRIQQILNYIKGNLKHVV
Procedure: Incubation time for HDAC1/2 is 120 min, and 10 min for other HDACs.
Human HDAC8 (GenBank Accession No. NM_018486), full-length with a C-terminal His tag, MW=46.4 kDa, was expressed in a baculovirus expression system.
(§1) • I. Compound handling: Testing compounds were dissolved in 100% DMSO to a specific concentration. The serial dilution was conducted by epMotion 5070 in DMSO. • II. HDAC reaction buffer: 50 mM Tris-HCl, pH8.0, 137 mM NaCl, 2.7 mM KCl, and 1 mM MgCl2, Added fresh: 1 mg/ml BSA, 1% DMSO. • III. Substrate: Fluorogenic HDAC General Substrate for HDAC1, 2, 3, 6, 10, 11 ans Sirt1, 2 and 3: Arg-His-Lys-Lys(Ac); HDAC8 only substrate: Arg-His-Lys(Ac)-Lys(Ac); Class2A Substrate (HDAC4, 5, 7 and 9): Acetyl-Lys(trifluoroacetyl)-AMC; Sirt5 substrate: Ac-Lys(succinyl)-AMC. • IV. General Reaction Procedure: (Standard IC50 determination) • a. Delivered 2× enzyme in wells of reaction plate except No Enzyme (No En) control wells. Add buffer in No En wells. • b. Delivered compounds in 100% DMSO into the enzyme mixture by Acoustic technology (Echo550; nanoliter range). Spin down and pre-incubation. • c. Delivered 2× Substrate Mixture (Fluorogenic HDAC Substrate and co-factor (500 μM of Nicotinamide adenine dinucleotide (NAD^+) in all Sirt assay) in all reaction wells to initiate the reaction. Spin and shake. • d. Incubated for 1-2 hr. at 30° C. with seal. • e. Added Developer with Trichostatin A (or TMP269 or NAD^+) to stop the reaction and to generate fluorescent color. • f. Fluorescence was read (excitatory, 360; emission, 460) using the EnVision Multilabel Plate Reader (Perkin Elmer) • g. Endpoint reading was taken for analysis after the development reaches plateau. • V. Data Analysis: The percentages of enzyme activity (relative to DMSO controls) and IC50 values were calculated using the GraphPad Prism 4 program based on a sigmoidal dose-response equation.
The inhibitory activities of HDAC of compounds of the invention were determined using biochemical HDAC assays. Compounds were tested at the indicated doses in the biochemical assays of HDAC1, HDAC2, HDAC3, HDAC4, HDAC5, HDAC6, HDAC7, HDAC8, HDAC9, HDAC10, or HDAC11 enzyme. The curve fit and IC50 values were calculated using the GraphPad Prism 4 program based on a sigmoidal dose-response equation.
as §1, with “[…]” for “μM”, “equation. […]” for “equation.”
Work on `Nc1ccc(-c2cccs2)cc1NC(=O)c1ccc(CN2C(=O)CCCC23CNC3)cc1` [Example 1, N-(2-amino-5-(thiophen-2-yl)phenyl)-4-((6-oxo-2,5-diazaspiro[3.5]nonan-5-yl)methyl)benzamide] yielded an IC50 greater than 20000 nM.
`CN1CCC2(CC1)CN(c1ccc(C(=O)Nc3cc(-c4cccs4)ccc3N)cn1)C(=O)O2` [Example 4, N-(2-amino-5-(thiophen-2-yl)phenyl)-6-(8-methyl-2-oxo-1-oxa-3,8-diazaspiro[4.5]decan-3-yl)nicotinamide] showed an IC50 greater than 20000 nM.
Work on `Nc1ccc(-c2cccs2)cc1NC(=O)c1ccc(CN2C(=O)CCC23CCNCC3)cc1` [Example 2, N-(2-amino-5-(thiophen-2-yl)phenyl)-4-((2-oxo-1,8-diazaspiro[4.5]decan-1-yl)methyl)benzamide] yielded an IC50 greater than 20000 nM.
Compound `Nc1ccc(-c2cccs2)cc1NC(=O)c1ccc(N2CC3(CCNCC3)CCC2=O)nc1` [Example 6, N-(2-amino-5-(thiophen-2-yl)phenyl)-6-(3-oxo-2,9-diazaspiro[5.5]undecan-2-yl)nicotinamide] has an IC50 greater than 20000 nM.
`Nc1cc(F)ccc1NC(=O)c1ccc(CN2C(=O)CCCC23CNC3)cc1` [Example 3, N-(2-amino-4-fluorophenyl)-4-((6-oxo-2,5-diazaspiro[3.5]nonan-5-yl)methyl)benzamide] was tested, and the IC50 was greater than 10000 nM.
Work on `Nc1ccc(-c2ccc(F)cc2)cc1NC(=O)c1ccc(N2CC3(CCOCC3)OC2=O)nc1` [Example 5, N-(4-amino-4′-fluoro-[1,1′-biphenyl]-3-yl)-6-(2-oxo-1,8-dioxa-3-azaspiro[4.5]decan-3-yl)nicotinamide] yielded an IC50 greater than 20000 nM.

Same assay, conditions: Table 2; incubation time 10 min
Compound `O=C(NO)c1ccc(CN2C(=O)c3ccccc3C23CCN(C2CC2)CC3)cc1` [Compound Example 12, 4-((1′-cyclopropyl-3-oxospiro[isoindoline-1,4′-piperidin]-2-yl)methyl)-N-hydroxybenzamide] has an IC50 of 1200 nM.
`O=C(NO)c1ccc(CN2C(=O)c3ccccc3C23CCNCC3)cc1` [Compound Example 10, N-hydroxy-4-((3-oxospiro[isoindoline-1,4′-piperidin]-2-yl)methyl)benzamide] was tested, and the IC50 was 710 nM.
`O=C(NO)c1ccc(CN2C(=O)C3(CCOC3)c3ccccc32)cc1` (centres unmarked) [Compound Example 9] gave an IC50 of 1920 nM.
In the case of `O=C(NO)c1ccc(CN2C(=O)c3ccccc3C23OCCO3)cc1` [Compound Example 8, N-hydroxy-4-((3-oxospiro[isoindoline-1,2′-[1,3]dioxolan]-2-yl)methyl)benzamide], the IC50 is reported as 400 nM.
`CN(C)C(=O)N1CCC2(CC1)c1ccccc1C(=O)N2Cc1ccc(C(=O)NO)cc1` [Compound Example 11, 2-(4-(hydroxycarbamoyl)benzyl)-N,N-dimethyl-3-oxospiro[isoindoline-1,4′-piperidine]-1′-carboxamide] was tested, and the IC50 was 520 nM.
